In US5668121A, “Glutamate (NMDA) receptor antagonists” (Warner-Lambert Company, priority 1995, dated 1997):

Legend:
[1] = target: glutamate recognition site of the NMDA receptor; test: [3H]-CGP 39653 receptor binding assay, synaptosomal membrane from rat cortex; conditions: read-out: affinity in [3H]-CGP binding assay (ability to displace 50% of the radioligand)
Procedure: (§1) Receptor binding experiments were performed using synaptosomal membrane from rat cortex according to means described in the literature.
(§2) Moreover, Bigge, et al., J. Med. Chem., 32 1580 (1989) discloses a [^3 H]-CCP binding assay result of 3.3 μM for the unsubstituted 5-(phosphonomethyl)-phenylalanine compound.

[2] = target: glutamate recognition site of the NMDA receptor; test: [3H]-glutamate receptor binding assay, synaptosomal membrane from rat cortex; conditions: for IC50: rat cortex synaptosomal membrane, read-out: affinity in [3H]-glutamate binding assay (ability to displace 50% of the radioligand)
Procedure: as §1, §2

[3] = target: NMDA receptor; conditions: read-out: [3H]-CCP binding assay result; cited from earlier work
[4] = target: T1, neutral amino acid transporter (Cricetulus griseus, UniProt G3GRU9); test: Competition with [3H]-L-phenylalanine for uptake into CHO cells; type: cell-based, Chinese hamster; conditions: 20 μM [3H]-L-phenylalanine
T1 construct: uptake into Chinese hamster ovary (CHO) cells; endogenous in cells; host or cells: Chinese hamster ovary (CHO) cells
T1 sequence (G3GRU9 1-506): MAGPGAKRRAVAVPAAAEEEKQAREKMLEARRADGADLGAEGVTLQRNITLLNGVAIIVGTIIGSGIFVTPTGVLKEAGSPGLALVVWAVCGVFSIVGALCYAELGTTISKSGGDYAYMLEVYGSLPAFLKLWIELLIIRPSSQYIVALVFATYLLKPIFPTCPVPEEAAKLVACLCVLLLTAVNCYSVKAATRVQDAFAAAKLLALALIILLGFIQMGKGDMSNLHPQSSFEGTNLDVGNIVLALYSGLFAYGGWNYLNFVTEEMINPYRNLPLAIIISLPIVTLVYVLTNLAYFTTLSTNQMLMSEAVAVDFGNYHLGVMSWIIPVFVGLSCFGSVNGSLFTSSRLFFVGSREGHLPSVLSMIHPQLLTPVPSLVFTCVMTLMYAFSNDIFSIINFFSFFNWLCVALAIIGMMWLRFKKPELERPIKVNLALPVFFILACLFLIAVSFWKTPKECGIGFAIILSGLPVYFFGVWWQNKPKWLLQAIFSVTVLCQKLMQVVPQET
T1 sequence (A0A9J7CH39 1-533 partner): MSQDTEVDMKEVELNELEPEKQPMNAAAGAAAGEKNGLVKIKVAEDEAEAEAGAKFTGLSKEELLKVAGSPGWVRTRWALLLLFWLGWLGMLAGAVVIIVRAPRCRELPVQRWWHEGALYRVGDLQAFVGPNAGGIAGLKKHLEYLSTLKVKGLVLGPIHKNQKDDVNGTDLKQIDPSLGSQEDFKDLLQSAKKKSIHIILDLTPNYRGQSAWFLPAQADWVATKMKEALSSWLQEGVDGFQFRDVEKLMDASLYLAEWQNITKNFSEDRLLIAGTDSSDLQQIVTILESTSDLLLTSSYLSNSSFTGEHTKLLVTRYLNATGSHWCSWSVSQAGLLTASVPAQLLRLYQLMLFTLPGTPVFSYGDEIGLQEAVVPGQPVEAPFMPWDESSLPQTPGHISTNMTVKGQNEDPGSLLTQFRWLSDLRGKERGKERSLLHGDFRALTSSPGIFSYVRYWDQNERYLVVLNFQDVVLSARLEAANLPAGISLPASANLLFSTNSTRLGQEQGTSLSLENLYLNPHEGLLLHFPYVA
Procedure: Transport capacity was determined by measuring the ability of these compounds to compete with L-phenylalanine for uptake into Chinese hamster ovary (CHO) cells. All transport studies were performed in the presence of 20 μM [^3 H]-L-phenylalanine and a varying amount of the inventive compound. The capacity of the compound for transport was evaluated by its ability to reduce the transport of phenylalanine. The compounds were determined to be either substrates or not substrates of the neutral amino acid transporter,and have KM values of between 20 and 500 μM.

[5] = tested on: electroshock induced convulsions; test: Electroshock induced convulsions in the mouse; type: in vivo

| Structure (SMILES) | IC50 [1] [nM] | IC50 [2] [nM] | IC50 [3] [nM] | inhibition of phenylalanine transport [4] | improvement in potency, as measured by binding assays, over prior art NMDA receptor antagonists ([2]; [3H]-glutamate and [3H]-CGP binding, comparison with prior art compounds) | ED50 ([5]; iv, 50 mA 200 ms corneal shock, read-out: ED50, inhibition of hindlimb extension) [mg/kg] | anticonvulsant activity after oral administration ([5]; oral) |
| --- | --- | --- | --- | --- | --- | --- | --- |
| NC(Cc1cc(CP(=O)(O)O)cc(-c2ccccc2)c1)C(=O)O (single isomer, unassigned) [(+)-α-amino-3-(5-phosphonomethyl-[1,1'-biphenyl]-3-yl)propanoic acid, reference compound] | 98 | 115 | – | – | – | – | – |
| N[C@@H](Cc1cccc(CP(=O)(O)O)c1)C(=O)O [5-(phosphonomethyl)-phenylalanine] | – | – | 3300 | – | – | – | – |
| N[C@@H](Cc1cc(CP(=O)(O)O)cc(-c2cccc3ccccc23)c1)C(=O)O [3-(1-Naphthalenyl)-5-(phosphonomethyl)-L-phenylalanine] | 8 | 4 | – | inhibited phenylalanine transport in CHO cells | at least a ten to thirty fold, and up to a several hundred fold improvement in potency | < 1 | demonstrates activity after oral administration with an extended duration of action |
